Where a name gives a salt, the structure may show the parent alone. Read-outs that look alike come from different tables or passages of the source.
Assays:
[1] = target: T1, GABA A receptor α1β3γ2 (hα1) (Homo sapiens, UniProt P14867+P18507); experiment: [3H]flumazenil competition binding, membranes of HEK293 cells expressing human GABA A α1β3γ2
T1 construct: expressed in transfected cells; host or cells: HEK293, transiently transfected; membranes
Protocol: (§1) The affinity of compounds at GABA A receptor subtypes was measured by competition for [^3H]flumazenil (85 Ci/mmol; Roche) binding to HEK293 cells expressing rat (stably transfected) or human (transiently transfected) receptors of composition α1β3γ2, α2β3γ2, α3β3γ2 and α5β3γ2.
(§2) Cell pellets were suspended in Krebs-tris buffer (4.8 mM KCl, 1.2 mM CaCl2, 1.2 mM MgCl2, 120 mM NaCl, 15 mM Tris; pH 7.5; binding assay buffer), homogenized by polytron for ca. 20 sec on ice and centrifuged for 60 min at 4° C. (50000 g; Sorvall, rotor: SM24=20000 rpm). The cell pellets were resuspended in Krebs-tris buffer and homogenized by polytron for ca. 15 sec on ice. Protein was measured (Bradford method, Bio-Rad) and aliquots of 1 mL were prepared and stored at −80° C.
(§3) Radioligand binding assays were carried out in a volume of 200 μL (96-well plates) which contained 100 μL of cell membranes, [^3H]flumazenil at a concentration of 1 nM for α1, α2, α3 subunits and 0.5 nM for α5 subunits and the test compound in the range of 10^−10-3×10^−6 M.
(§4) Nonspecific binding was defined by 10^−5 M diazepam and typically represented less than 5% of the total binding. Assays were incubated to equilibrium for 1 hour at 4° C. and harvested onto GF/C uni-filters (Packard) by filtration using a Packard harvester and washing with ice-cold wash buffer (50 mM Tris; pH 7.5). After drying, filter-retained radioactivity was detected by liquid scintillation counting. Ki values were calculated using Excel-Fit (Microsoft) and are the means of two determinations.

[2] = target: T2, GABA A receptor α5β3γ2 (hα5) (Homo sapiens, UniProt P18507+P31644); experiment: [3H]flumazenil competition binding, membranes of HEK293 cells expressing human GABA A α5β3γ2
T2 construct: expressed in transfected cells; host or cells: HEK293, transiently transfected; membranes
Protocol: as §1, §2, §3, §4

[3] = [3H]flumazenil 0.5 nM, 1 hour at 4° C., means of two determinations, read-out: Ki[nM] hα5
[4] = [3H]flumazenil 1 nM, 1 hour at 4° C., means of two determinations, read-out: Ki[nM] hα1

`O=C(Cc1nc2n(n1)Cc1c(Cl)ncn1-c1ccc(Br)cc1-2)NCC1CC1` [Example 64, 3-Bromo-10-chloro-6-[(cyclopropylmethyl-carbamoyl)-methyl]-9H-imidazo[1,5-a][1,2,4]triazolo[1,5-d][1,4]benzodiazepine] was tested, and the Ki [1] was 68.8 nM and the Ki [2, 3] was 0.5 nM.

`Cc1ncn2c1Cn1nc(Cn3ccccc3=O)nc1-c1ccccc1-2` [Example 378, 10-Methyl-6-(2-oxo-2H-pyridin-1-ylmethyl)-9H-imidazo[1,5-a][1,2,4]triazolo[1,5-d][1,4]benzodiazepine] showed a Ki [1] of 42.1 nM and a Ki [2, 3] of 0.6 nM.

“3-Bromo-10-chloro-6-(hydroxy-phenyl-ethyl)-9H-imidazo[1,5-a][1,2,4]triazolo[1,5-d][1,4]benzodiazepine [Example 54]” showed a Ki [1, 4] of 34.6 nM and a Ki [2, 3] of 0.9 nM.

Work on `Cc1ccc(Cc2nc3n(n2)Cc2c(C)ncn2-c2ccc(Cl)cc2-3)cn1` [Example 185, 3-Chloro-10-methyl-6-(6-methyl-pyridin-3-ylmethyl)-9H-imidazo[1,5-a][1,2,4]triazolo[1,5-d][1,4]benzodiazepine] yielded a Ki [1, 4] of 248 nM and a Ki [2] of 0.9 nM.

In the case of `O=C1SCCN1Cc1nc2n(n1)Cc1c(Cl)ncn1-c1ccc(Br)cc1-2` [Example 312, 3-Bromo-10-chloro-6-(2-oxo-thiazolidin-3-ylmethyl)-9H-imidazo[1,5-a][1,2,4]triazolo[1,5-d][1,4]benzodiazepine], the Ki [1] is reported as 60 nM and the Ki [2, 3] is reported as 0.5 nM.

Molecule `O=C(Cc1nc2n(n1)Cc1c(Cl)ncn1-c1ccc(Br)cc1-2)NCc1cccnc1` [Example 63, 3-Bromo-10-chloro-6-{[(Pyridin-3-ylmethyl)-carbamoyl]-methyl}-9H-imidazo[1,5-a][1,2,4]triazolo[1,5-d][1,4]benzodiazepine] has a Ki [1] of 64.7 nM and a Ki [2, 3] of 0.8 nM.

For `O=C1CCC(=O)N1Cc1nc2n(n1)Cc1c(Cl)ncn1-c1ccc(Br)cc1-2` [Example 310, 3-Bromo-10-chloro-6-(2,5-dioxo-pyrrolidin-1-ylmethyl)-9H-imidazo[1,5-a][1,2,4]triazolo[1,5-d][1,4]benzodiazepine], the Ki [1, 4] was 69.7 nM and the Ki [2, 3] was 0.7 nM.

`O=C1NCCN1Cc1nc2n(n1)Cc1c(Cl)ncn1-c1ccc(Br)cc1-2` [Example 301, 3-Bromo-10-chloro-6-(2-oxo-imidazolidin-1-ylmethyl)-9H-imidazo[1,5-a][1,2,4]triazolo[1,5-d][1,4]benzodiazepine] gave a Ki [1, 4] of 50.5 nM and a Ki [2, 3] of 0.7 nM.

`Cc1ncn2c1Cn1nc(Cn3ccnc3)nc1-c1ccccc1-2` [Example 275, 6-(Imidazol-1-ylmethyl)-10-methyl-9H-imidazo[1,5-a][1,2,4]triazolo[1,5-d][1,4]benzodiazepine hydrochloride (1:1)] was tested, and the Ki [1] was 33.6 nM and the Ki [2, 3] was 0.6 nM.

In the case of `Clc1ccc2c(c1)-c1nc(Cn3ccnn3)nn1Cc1c(Cl)ncn1-2` [Example 11, 3,10-Dichloro-6-[1,2,3]triazol-1-ylmethyl-9H-imidazo[1,5-a][1,2,4]triazolo[1,5-d][1,4]benzodiazepine], the Ki [1] is reported as 48.3 nM and the Ki [2, 3] is reported as 0.5 nM.

For `O=C(Cc1nc2n(n1)Cc1c(Cl)ncn1-c1ccc(Br)cc1-2)NC1CCOCC1` [Example 62, 3-Bromo-10-chloro-6-[(tetrahydro-pyran-4-ylcarbamoyl)-methyl]-9H-imidazo[1,5-a][1,2,4]triazolo[1,5-d][1,4]benzodiazepine], the Ki [1] was 88.4 nM and the Ki [2, 3] was 0.7 nM.

`O=C1CCCN1Cc1nc2n(n1)Cc1c(Cl)ncn1-c1ccc(Br)cc1-2` [Example 49, 3-Bromo-10-chloro-6-(2-oxo-pyrrolidin-1-ylmethyl)-9H-imidazo[1,5-a][1,2,4]triazolo[1,5-d][1,4]benzodiazepine] was tested, and the Ki [1] was 114 nM and the Ki [2, 3] was 0.9 nM.

`Clc1ccc2c(c1)-c1nc(Cn3cncn3)nn1Cc1c(Cl)ncn1-2` [Example 12, 3,10-Dichloro-6-[1,2,4]triazol-1-ylmethyl-9H-imidazo[1,5-a][1,2,4]triazolo[1,5-d][1,4]benzodiazepine] gave a Ki [1] of 51.8 nM and a Ki [2, 3] of 0.8 nM.

`O=C1OCCN1Cc1nc2n(n1)Cc1c(Cl)ncn1-c1ccc(Cl)cc1-2` [Example 316, 3,10-Dichloro-6-(2-oxo-oxazolidin-3-ylmethyl)-9H-imidazo[1,5-a][1,2,4]triazolo[1,5-d][1,4]benzodiazepine] gave a Ki [1, 4] of 116 nM and a Ki [2] of 0.9 nM.

In the case of `Cc1cc(Cc2nc3n(n2)Cc2c(C)ncn2-c2ccc(Cl)cc2-3)on1` [Example 183, 3-Chloro-10-methyl-6-(3-methyl-isoxazol-5-ylmethyl)-9H-imidazo[1,5-a][1,2,4]triazolo[1,5-d][1,4]benzodiazepine hydrochloride (1:1)], the Ki [1, 4] is reported as 279 nM and the Ki [2] is reported as 0.6 nM.

Work on `Cc1noc(Cc2nc3n(n2)Cc2c(Cl)ncn2-c2ccc(Br)cc2-3)n1` [Example 72, 3-Bromo-10-chloro-6-(3-methyl-[1,2,4]oxadiazol-5-ylmethyl)-9H-imidazo[1,5-a][1,2,4]triazolo[1,5-d][1,4]benzodiazepine] yielded a Ki [1] of 98.2 nM and a Ki [2, 3] of 0.7 nM.

Molecule `Cc1ncn2c1Cn1nc(Cc3ccncc3)nc1-c1cc(Br)ccc1-2` [Example 122, 3-Bromo-10-methyl-6-(pyridine-4-ylmethyl)-9H-imidazo[1,5-a][1,2,4]triazolo[1,5-d][1,4]benzodiazepine] has a Ki [1, 4] of 150 nM and a Ki [2] of 0.5 nM.

With `Cc1ccc2c(c1)-c1nc(Cc3cc(C)no3)nn1Cc1c(C)ncn1-2` [Example 236, 3,10-Dimethyl-6-(3-methyl-isoxazol-5-ylmethyl)-9H-imidazo[1,5-a][1,2,4]triazolo[1,5-d][1,4]benzodiazepine] the Ki [1, 4] was 496 nM and the Ki [2] was 0.8 nM.

For `CCOC(=O)c1ncn2c1Cn1nc(COC)nc1-c1cc(Cl)ccc1-2` [Example 4, Ethyl 3-chloro-6-methoxymethyl-9H-imidazo[1,5-a][1,2,4]triazolo[1,5-d][1,4]benzodiazepine-10-carboxylate], the Ki [1] was 8.5 nM and the Ki [2, 3] was 0.3 nM.
